Reference: ChEMBL document CHEMBL1146115, “Synthesis and evaluation of novel heterocyclic inhibitors of GSK-3” (Bioorg Med Chem Lett, 2006)

Target: Glycogen synthase kinase-3 (Homo sapiens, UniProt P49840+P49841)
Experiment: Inhibition of GSK3
Assay type: protein assay

Log IC50	Structure (SMILES)
-8.3	COc1cccc(-c2[nH]nc3c(N/N=C/c4ccncc4)ncnc23)c1
-7.5	COc1cccc(-n2ccc3c(N/N=C/c4ccncc4)ncnc32)c1
-6.3	COc1cccc(-c2cn(C)c3c(N/N=C/c4ccncc4)ncnc23)c1
-6.2	COc1cccc(-n2cnc3c(N/N=C/c4ccncc4)ncnc32)c1 [GW813360X]
-8.3	COc1cccc(-c2c[nH]c3c(N/N=C/c4ccncc4)ncnc23)c1 [GW814408X]
-8.2	COc1cccc(-n2ncc3c(N/N=C/c4ccncc4)ncnc32)c1 [GW784752X]
